According to ChEMBL document CHEMBL4888484, “Replenishing the malaria drug discovery pipeline: Screening and hit evaluation of the MMV Hit Generation Library 1 (HGL1) against asexual blood stage Plasmodium falciparum ,using a nano luciferase reporter read-out” (2022):
pIC50: −log10 of the molar value.

Tests used:
Plasmodium falciparum [1] = experiment: Hit confirmation in dose-response curve in Dd2 pLDH assay, at 72h; type: functional, organism-based; parameters: timepoint 72 hour; conditions: Dd2, Erythrocyte
[2] = Hit confirmation in dose-response curve in HepG2 cytotoxicity assay, at 72h; type: toxicity, cell-based; parameters: timepoint 72 hour; conditions: human, HepG2 cells
Plasmodium falciparum [3] = experiment: Hit confirmation in dose-response curve in NF54 pLDH assay, at 72h; type: functional, organism-based; parameters: timepoint 72 hour; conditions: NF54, Erythrocyte
Plasmodium falciparum [4] = experiment: Hit confirmation in dose-response curve in NF54 nanoGlo assay, at 12h; type: functional, organism-based, Erythrocyte; parameters: timepoint 12 hour; conditions: Plasmodium falciparum, NF54, Erythrocyte, 12 h
Plasmodium falciparum [5] = experiment: Hit confirmation in dose-response curve in NF54 nanoGlo assay, at 72h; type: functional, organism-based, Erythrocyte; parameters: timepoint 72 hour; conditions: Plasmodium falciparum, NF54, Erythrocyte, 72 h

Structure (SMILES)	pIC50 (Plasmodium falciparum [1])	IC50 at 72 h [2] [µM]	pIC50 (Plasmodium falciparum [3])	pIC50 (Plasmodium falciparum [4])	pIC50 (Plasmodium falciparum [5])
c1coc(CNc2nc(Nc3cccc4ccccc34)nc3ccccc23)c1	5.30	> 10	5.10	5.24	5.55
O=C(Nc1nncs1)c1cccc(C(=O)Nc2nncs2)n1	5.48	> 10	5.49	< 5.00	5.71
CC1CCC(c2noc([C@H]3CCO[C@@H]3c3cncc(Br)c3)n2)CC1 (stereo not given in full)	5.41	> 10	5.35	< 5.00	5.54
CC(N=C1NC(=NC(C)c2ccccc2)c2ccccc21)c1ccccc1 (stereo not given)	5.38	> 10	5.30	5.31	5.61
CC1CCN(Cc2ccc(CNCc3c[nH]nc3-c3ccc(F)cc3)cc2)CC1	5.45	> 10	5.18	5.10	5.46
CCc1c(C)nn2c(c1C)c(-c1ccccc1)[n+]1c(C)c(CC)c(C)nc21	5.83	> 10	5.66	< 5.00	5.77
COc1ccc(-c2nn3c(N4CCN(CC=Cc5ccccc5)CC4)cc(C)nc3c2C)cc1OC	5.27	> 10	5.11	5.41	5.76
NC(=O)c1ccc(C(F)(F)F)n(C[C@H](O)c2cc(Cl)ccc2Cl)c1=O	5.42	> 10	5.21	5.14	5.58
O=C(Nc1cccc2cccnc12)c1ccccn1	5.70	3.47	6.06	< 5.00	6.10
O[C@@H](CNCc1ccsc1C(F)(F)F)c1cc(Cl)c2c(c1)OCCO2	5.46	> 10	5.19	5.14	5.50
Cc1nn(C(C)(C)C)c2nc(C3CC3)cc(C(=O)N(C)c3ccccc3)c12	5.78	> 10	5.63	< 5.00	5.73
O=c1nc2n(nc1-c1ccccc1)C1(CCC1)Nc1ccccc1-2	5.73	> 10	5.55	5.39	6.12
CC1(C)CCC(Nc2ccc(C(N)=O)nn2)CC1	< 5.00	> 10	7.06	< 5.00	6.31
O=C(Nc1[nH]c(=O)ncc1F)c1cccc2ccccc12	< 5.00	> 10	7.98	5.71	8.21
CN(C)CCN(C)c1ccc(Br)cc1NCc1cncn1C	5.53	> 10	5.46	5.43	5.70
Cc1cc(N(C)CCC2CC2)nc([C@H](C)N(C)CCC2CC2)n1	5.66	> 10	5.62	5.10	5.86
CC(C)O[C@@H]1CCN(C[C@H](O)c2ccc(C(F)(F)F)cc2)C1	5.55	> 10	5.51	5.48	5.68
CCCN1CCC(NCc2ccc(-c3cccc(Cl)c3Cl)o2)CC1	5.58	> 10	5.45	5.15	5.58
COc1cc(F)c([C@H](C)NC(=O)N(C)Cc2ccco2)cc1OC	4.97	> 10	< 5.00	6.05	5.73
O=C(Nc1c(S(=O)(=O)c2ccccc2)c2nc3ccccc3nc2n1CCc1ccccc1)c1ccc(Cl)cc1	5.25	> 10	4.95	6.22	5.96
Cc1ccc(C)c(-n2cnc(=O)n2[C@H]2CCN(C3CC3)C2=O)c1	5.24	> 10	5.08	< 5.00	5.53
COc1cc2c(cc1OC)[C@@H](NC(=O)c1cnc(C3(C)OCCO3)s1)CCCC2	5.32	> 10	5.13	5.32	5.69
CC(C(=O)Nc1nccs1)N1CCCC(c2ccn[nH]2)C1 (stereo not given)	5.51	> 10	5.14	< 5.00	5.51
Cn1cncc1CC(=O)Nc1ccnc(NC(=O)OC(C)(C)C)c1	5.67	> 10	5.42	5.75	5.91
NC(=O)C(NC(=O)c1cccc(Cl)c1)C(N)=O	< 5.00	> 10	< 5.00	< 5.00	< 5.00
Oc1c([C@@H](c2ccccn2)N2CCCC2)ccc2cccnc12	5.63	> 10	5.11	5.45	5.67
